# How the values were obtained:
# Assay type in all cases: cell-based
# PKA activity [1] = assay: AKAR3 high-throughput screening of Johns Hopkins Clinical Compound Library; details: 10 μM compound about 15 min, then 0.25 μM ISO
# Protocol: Live Cell High-Throughput Screening. […] After incubation for 24 hours, cells were washed once with HBSS and left in 190 μl of HBSS at 20-25° C. Fluorescence readings were taken as described above, with each cycle lasting 90 seconds. Following baseline acquisition, cells in each experimental well were treated with a compound from the Johns Hopkins Clinical Compound Library to a final concentration of 10 μM. Control cells were treated with 10 μL of 10% fetal bovine serum (FBS) in a solution of phosphate buffered saline (PBS) at pH 7.4, which is the solution used to dissolve library compounds.
# Ten final cycles were then performed.
# FRET responses were calculated as described above. […] Agonist hits were defined as compounds eliciting responses larger than six times the standard deviation above the baseline. Antagonist hits were defined as compounds which decreased the ISO stimulated response by 50% or by six times the standard deviation.
# In a primary screening, 160 compounds from the Johns Hopkins Clinical Compound Library were added to AKAR3-expressing HEK-293 cells in individual wells of 96-well plates to a final concentration of 10 μM after a base line reading. Time courses were recorded to monitor any fluorescence changes upon drug addition and to identify hits which activate PKA as potential agonists.
# Potential agonists were identified by selecting compounds which stimulated emission ratio changes larger than 6 times the standard deviation above the negative control (FIG. 3a ).
# PKA activity [2] = assay: AKAR3 live cell 96-well plate reader assay (yellow/cyan emission ratio)
# Protocol: (§1) Live Cell Plate Reading. HEK-293 cells were transfected with AKAR3 or ICUE3 using calcium phosphate at 40% confluency and grown for 40 hours. Cells were then trypsinized and plated in a Costar 3603 96-well plate (Corning) at a density of 150,000 cells per well. After incubation for another 24 hours, cells were washed once with HBSS and left in 150 μl of HBSS at 20-25° C. Fluorescence reading was taken on a FLUOstar OPTIMA fluorescence microplate reader (BMG Labtechnologies Inc.) using a 420DF20 excitation filter and two emission filters (470DF40 for cyan and 535DF25 for yellow). A baseline was established in three cycles, each consisting of a full plate reading of yellow intensity, followed by a reading of cyan intensity.
# (§2) Each cycle lasted between 64 and 92 seconds. Cells were then treated with ISO, Fsk, H89, Propranolol (Pro; Sigma), or 3-isobutyl-1-methylxanthine (IBMX; Sigma) as indicated. Readings were taken in additional cycles. FRET change was calculated as the percent increase of emission ratios (yellow-to-cyan for AKAR and cyan-to-yellow for ICUE) over baseline for each well during a given cycle. Several parameters were calculated to assess the efficiency of the assay, including Z′ factor, coefficient of variation, and signal to noise (S/N) ratio (22).
# AKAR2 (FIG. 4). This reporter, AKAR3 (FIG. 1b), was tested in a 96-well plate format. […] As negative controls, addition of buffer of 2% DMSO generated minimal changes in emission ratios. This 96-well plate assay was sensitive and reproducible, with a signal to noise ratio of 30.3, a Z′ factor of 0.84, and a coefficient of variation (CV) of 1.8% for the Fsk-stimulated response.
# To provide specific readout of compartmentalized PKA activities, we introduced a C-terminal nuclear export signal (NES) to AKAR3 . In the plate reader assay using AKAR3 -NES (FIG. 1d), cytosolic PKA activity was recorded without contamination of nuclear activity, which has slower kinetics due to diffusional translocation of the catalytic subunit from cytosol to nucleus. […] Thus, sensor targeting provides increased temporal and spatial resolution and can be used to reveal how individual signaling microdomains, such as kinase-containing signaling complexes, are affected by drugs or other perturbations, adding another level of capacity to the non-image-based high-throughput assays of the invention.
# cAMP [3] = assay: ICUE high-throughput screening of Johns Hopkins Clinical Compound Library (stable cells); details: 10 μM compound, then 0.25 μM Iso plus 100 μM IBMX
# Protocol: Live Cell High-Throughput Screening. HEK-293 cells transiently expressing AKAR or stably expressing ICUE were trypsinized and plated in a Costar 3606 96-well plate (Corning) at a density of 150,000 cells per well. After incubation for 24 hours, cells were washed once with HBSS and left in 190 μl of HBSS at 20-25° C. Fluorescence readings were taken as described above, with each cycle lasting 90 seconds. Following baseline acquisition, cells in each experimental well were treated with a compound from the Johns Hopkins Clinical Compound Library to a final concentration of 10 μM. Control cells were treated with 10 μL of 10% fetal bovine serum (FBS) in a solution of phosphate buffered saline (PBS) at pH 7.4, which is the solution used to dissolve library compounds.
# Readings were taken for 10 cycles spanning a time of approximately 15 minutes, after which cells in experimental wells and positive controls were treated with 0.25 μM ISO (AKAR) or 0.25 μM Iso plus 100 μM IBMX (ICUE), while negative controls received 0.5% DMSO in HBSS. Ten final cycles were then performed.
# FRET responses were calculated as described above. Negative control (10% FBS, 0.5% DMSO) and positive control (10% FBS, 0.25 μM ISO) curves were generated. Agonist hits were defined as compounds eliciting responses larger than six times the standard deviation above the baseline. […]
# cAMP [4] = assay: ICUE3 live cell high-throughput cAMP plate reader assay (cyan/yellow emission ratio)
# Protocol: as §1, §2
# To follow the activity of the signaling pathway and to assay related drug targets in parallel, we developed a live cell-based high-throughput assay for cAMP, a second messenger that is generated via activation of Gs-coupled GPCRs and exerts its effects by activating PKA and other effectors. Similar improvement approaches were first applied to create a reporter that more than doubled the response of previous “Indicator for cAMP Using Epac” (ICUE), which generates a decrease in FRET upon binding of cAMP (FIG. 5). […] Possible sources of the variation and reduced signal are transfection efficiency and expression variability.
smiles,measurement,setting,value
"CC(C)NCC(O)COc1cccc2ccccc12 (stereo not drawn) [Pro, propranolol]",antagonist screen: effect on ISO-stimulated AKAR response,PKA activity [1],potently inhibited
same,effect on ISO-induced AKAR3 response,"PKA activity [2]; 10 μM Pro, FIG. 2",inhibited
same,effect on Fsk-stimulated AKAR3 response,PKA activity [2]; FIG. 2d,no effect
same,antagonist screen: effect on ISO-stimulated ICUE response,cAMP [3],potently inhibited
same,effect on Fsk-stimulated ICUE3 response,cAMP [4]; FIG. 2c,no effect
same,effect on ISO-induced ICUE3 response,"cAMP [4]; co-treatment, 10 μM Pro, FIG. 2a",inhibited
